Experimental data reported in PubChem BioAssay AID1963828 (Molecular Pharmacology Branch, DTP, NCI, 2024).

Tested on: 991263-137-R1-J2-PDC complex spheroid viability
Test: Anticancer human tumor 991263-137-R1-J2-PDC patient-derived colon adenocarcinoma cell line growth inhibition [POLQ]
Conditions: for IC50: curve of first compound; for viability, T/C: stronger effect = lower value
Summary of the method: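 Three-cell-type spheroids modelling solid tumor plus stroma served as the readout system; POL inhibitors were tested individually and in combination, concentration ranges set by clinical Cmax where known.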

[1] = second compound 0.0316 µM, first compound 0.0316 µM
[2] = second compound 0.0316 µM, first compound 0.1 µM
[3] = second compound 0.0316 µM, first compound 0.316 µM
[4] = second compound 0.0316 µM, first compound 1 µM
[5] = second compound 0.0316 µM, first compound 3.16 µM
[6] = second compound 0.0316 µM, first compound 10 µM
[7] = second compound 0.1 µM, first compound 0.0316 µM
[8] = second compound 0.1 µM, first compound 0.1 µM
[9] = second compound 0.1 µM, first compound 0.316 µM
[10] = second compound 0.1 µM, first compound 1 µM
[11] = second compound 0.1 µM, first compound 3.16 µM
[12] = second compound 0.1 µM, first compound 10 µM
[13] = second compound 0.316 µM, first compound 0.0316 µM
[14] = second compound 0.316 µM, first compound 0.1 µM
[15] = second compound 0.316 µM, first compound 0.316 µM
[16] = second compound 0.316 µM, first compound 1 µM
[17] = second compound 0.316 µM, first compound 3.16 µM
[18] = second compound 0.316 µM, first compound 10 µM
[19] = second compound 1 µM, first compound 0.0316 µM
[20] = second compound 1 µM, first compound 0.1 µM
[21] = second compound 1 µM, first compound 0.316 µM
[22] = second compound 1 µM, first compound 1 µM
[23] = second compound 1 µM, first compound 3.16 µM
[24] = second compound 1 µM, first compound 10 µM
[25] = second compound 3.16 µM, first compound 0.0316 µM
[26] = second compound 3.16 µM, first compound 0.1 µM
[27] = second compound 3.16 µM, first compound 0.316 µM
[28] = second compound 3.16 µM, first compound 1 µM
[29] = second compound 3.16 µM, first compound 3.16 µM
[30] = second compound 3.16 µM, first compound 10 µM
[31] = second compound 10 µM, first compound 0.0316 µM
[32] = second compound 10 µM, first compound 0.1 µM
[33] = second compound 10 µM, first compound 0.316 µM
[34] = second compound 10 µM, first compound 1 µM
[35] = second compound 10 µM, first compound 3.16 µM
[36] = second compound 10 µM, first compound 10 µM
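Also: spheroids exposed to compounds for 7 days before readout.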
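For viability, T/C in this document: 100% = DMSO vehicle control viability.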

Work on `CC1COCCN1c1cc(C2(S(C)(=N)=O)CC2)nc(-c2ccnc3[nH]ccc23)n1` (stereo unspecified) + Nc1ccc(C#CCN(C(=O)Cc2ncc(C(F)(F)F)cc2C(F)(F)F)c2ccc(F)cc2)nn1 yielded an IC50 (second compound 0.0316 µM) greater than 10 µM, an IC50 (second compound 0.1 µM) greater than 10 µM and an IC50 (second compound 0.316 µM) greater than 10 µM. For the same compound, the IC50 (second compound 1 µM) was greater than 10 µM, the IC50 (second compound 3.16 µM) was greater than 10 µM and the IC50 (second compound 10 µM) was greater than 10 µM. The viability, T/C [1] was 100%, the viability, T/C [2] was 104% and the viability, T/C [3] was 108%. It also gave a viability, T/C [4] of 109%, a viability, T/C [5] of 97.5% and a viability, T/C [6] of 86%. It also gave a viability, T/C [7] of 114%, a viability, T/C [8] of 110% and a viability, T/C [9] of 93.9%. The viability, T/C [10] was 105%, the viability, T/C [11] was 108% and the viability, T/C [12] was 97.2%. For the same compound, the viability, T/C [13] was 97.7%, the viability, T/C [14] was 103% and the viability, T/C [15] was 110%. The viability, T/C [16] was 103%, the viability, T/C [17] was 108% and the viability, T/C [18] was 89.2%. For the same compound, the viability, T/C [19] was 119%, the viability, T/C [20] was 109% and the viability, T/C [21] was 106%. It also gave a viability, T/C [22] of 106%, a viability, T/C [23] of 104% and a viability, T/C [24] of 85.1%. It also gave a viability, T/C [25] of 101%, a viability, T/C [26] of 102% and a viability, T/C [27] of 102%. The viability, T/C [28] was 97.5%, the viability, T/C [29] was 101% and the viability, T/C [30] was 83.9%. For the same compound, the viability, T/C [31] was 109%, the viability, T/C [32] was 106% and the viability, T/C [33] was 115%. The viability, T/C [34] was 99.5%, the viability, T/C [35] was 93.4% and the viability, T/C [36] was 63.6%.

`COc1ccc([C@@H](O)c2cc(-c3ncnc4cc(N5CCOCC5)ccc34)c(F)cc2Cl)nn1` + Nc1ccc(C#CCN(C(=O)Cc2ncc(C(F)(F)F)cc2C(F)(F)F)c2ccc(F)cc2)nn1 showed an IC50 (second compound 0.0316 µM) of 5.34 µM, an IC50 (second compound 0.1 µM) of 4.8 µM and an IC50 (second compound 0.316 µM) of 6.69 µM. The IC50 (second compound 1 µM) was 5.15 µM, the IC50 (second compound 3.16 µM) was 4.04 µM and the IC50 (second compound 10 µM) was 2.96 µM. It also gave a viability, T/C [1] of 110%, a viability, T/C [2] of 96.3% and a viability, T/C [3] of 93.1%. The viability, T/C [4] was 88.9%, the viability, T/C [5] was 66.2% and the viability, T/C [6] was 30.4%. The viability, T/C [7] was 105%, the viability, T/C [8] was 120% and the viability, T/C [9] was 91.1%. It also gave a viability, T/C [10] of 85.6%, a viability, T/C [11] of 59.2% and a viability, T/C [12] of 33.8%. The viability, T/C [13] was 100%, the viability, T/C [14] was 105% and the viability, T/C [15] was 96.5%. For the same compound, the viability, T/C [16] was 98.2%, the viability, T/C [17] was 87.9% and the viability, T/C [18] was 29.5%. It also gave a viability, T/C [19] of 107%, a viability, T/C [20] of 101% and a viability, T/C [21] of 99.5%. It also gave a viability, T/C [22] of 93.7%, a viability, T/C [23] of 64.7% and a viability, T/C [24] of 29.6%. The viability, T/C [25] was 97.1%, the viability, T/C [26] was 102% and the viability, T/C [27] was 87.1%. For the same compound, the viability, T/C [28] was 94%, the viability, T/C [29] was 55.5% and the viability, T/C [30] was 29.5%. The viability, T/C [31] was 99.9%, the viability, T/C [32] was 95.6% and the viability, T/C [33] was 95.4%. For the same compound, the viability, T/C [34] was 82.5%, the viability, T/C [35] was 48% and the viability, T/C [36] was 28.6%.

In the case of `Cn1ncnc1[C@H]1c2n[nH]c(=O)c3cc(F)cc(c23)N[C@@H]1c1ccc(F)cc1` + Nc1ccc(C#CCN(C(=O)Cc2ncc(C(F)(F)F)cc2C(F)(F)F)c2ccc(F)cc2)nn1, the IC50 (second compound 0.0316 µM) is reported as greater than 0.1 µM, the IC50 (second compound 0.1 µM) is reported as greater than 0.1 µM and the IC50 (second compound 0.316 µM) is reported as greater than 0.1 µM. For the same compound, the IC50 (second compound 1 µM) was greater than 0.1 µM, the IC50 (second compound 3.16 µM) was greater than 0.1 µM and the IC50 (second compound 10 µM) was greater than 0.1 µM. It also gave a viability, T/C (second compound 0.0316 µM, first compound 0.000316 µM) of 106%, a viability, T/C (second compound 0.0316 µM, first compound 0.001 µM) of 97.1% and a viability, T/C (second compound 0.0316 µM, first compound 0.00316 µM) of 99.6%. It also gave a viability, T/C (second compound 0.0316 µM, first compound 0.01 µM) of 98.8%, a viability, T/C [1] of 106% and a viability, T/C [2] of 94%. For the same compound, the viability, T/C (second compound 0.1 µM, first compound 0.000316 µM) was 99.1%, the viability, T/C (second compound 0.1 µM, first compound 0.001 µM) was 102% and the viability, T/C (second compound 0.1 µM, first compound 0.00316 µM) was 95.2%. For the same compound, the viability, T/C (second compound 0.1 µM, first compound 0.01 µM) was 107%, the viability, T/C [7] was 106% and the viability, T/C [8] was 110%. For the same compound, the viability, T/C (second compound 0.316 µM, first compound 0.000316 µM) was 93.7%, the viability, T/C (second compound 0.316 µM, first compound 0.001 µM) was 95.1% and the viability, T/C (second compound 0.316 µM, first compound 0.00316 µM) was 94.2%. The viability, T/C (second compound 0.316 µM, first compound 0.01 µM) was 105%, the viability, T/C [13] was 109% and the viability, T/C [14] was 82.9%. The viability, T/C (second compound 1 µM, first compound 0.000316 µM) was 96.8%, the viability, T/C (second compound 1 µM, first compound 0.001 µM) was 103% and the viability, T/C (second compound 1 µM, first compound 0.00316 µM) was 112%. The viability, T/C (second compound 1 µM, first compound 0.01 µM) was 109%, the viability, T/C [19] was 104% and the viability, T/C [20] was 94.5%. The viability, T/C (second compound 3.16 µM, first compound 0.000316 µM) was 101%, the viability, T/C (second compound 3.16 µM, first compound 0.001 µM) was 92% and the viability, T/C (second compound 3.16 µM, first compound 0.00316 µM) was 98.3%. It also gave a viability, T/C (second compound 3.16 µM, first compound 0.01 µM) of 97.7%, a viability, T/C [25] of 101% and a viability, T/C [26] of 112%. For the same compound, the viability, T/C (second compound 10 µM, first compound 0.000316 µM) was 99.3%, the viability, T/C (second compound 10 µM, first compound 0.001 µM) was 106% and the viability, T/C (second compound 10 µM, first compound 0.00316 µM) was 97.1%. It also gave a viability, T/C (second compound 10 µM, first compound 0.01 µM) of 103%, a viability, T/C [31] of 101% and a viability, T/C [32] of 110%.
